How the values were obtained:
Experiment in all cases: relative viability (nuclei count vs DMSO), 5 days (fraction); higher = more cells survive
[1] = compound: COc1cc2c(Oc3ccc4[nH]c(C)cc4c3F)ncnc2cc1OCCCN1CCCC1 [Cediranib]
Method in brief: (§1)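 On vehicle-anchored 1536-well plates, lung cancer cell lines held overnight at 37 °C were pinned with five library-drug doses (not always all listed) spaced by √10. With no medium change over 5 days, they were then fixed, permeabilised and Hoechst-stained in one step and imaged at 4×. MetaXpress counted nuclei, and viability is the median across plates of treated-well over vehicle-well nuclei. Acceptance needed control CV below 25% and at least one doubling.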

[2] = compound: Nc1ncn([C@H]2C[C@H](O)[C@@H](CO)O2)c(=O)n1 [Decitabine]
Method in brief: as §1

[3] = compound: O=C(C[C@H]1NCCC[C@@H]1O)Cn1cnc2cc(Br)c(Cl)cc2c1=O (racemic) [Halofuginone]
Method in brief: as §1

201T
relative viability ([1]; 0.04 µM): 1.04
relative viability ([1]; 0.1265 µM): 1.1
relative viability ([1]; 0.4 µM): 0.911
relative viability ([1]; 1.265 µM): 0.956
relative viability ([1]; 4 µM): 0.974
relative viability ([2]; 0.04 µM): 0.981
relative viability ([2]; 0.1265 µM): 1.02
relative viability ([2]; 0.4 µM): 1.04
relative viability ([2]; 1.265 µM): 0.612
relative viability ([2]; 2 µM, anchor plate): 0.855
relative viability ([2]; 4 µM): 0.953
relative viability ([3]; 0.001 µM): 0.97
relative viability ([3]; 0.003162 µM): 0.967
relative viability ([3]; 0.01 µM): 0.952
relative viability ([3]; 0.03162 µM): 0.933
relative viability ([3]; 0.1 µM): 0.803

A549
relative viability ([1]; 0.04 µM): 0.929
relative viability ([1]; 0.1265 µM): 0.953
relative viability ([1]; 0.4 µM): 0.889
relative viability ([1]; 1.265 µM): 0.897
relative viability ([1]; 4 µM): 0.996
relative viability ([2]; 0.04 µM): 0.858
relative viability ([2]; 0.1265 µM): 0.724
relative viability ([2]; 0.4 µM): 0.554
relative viability ([2]; 1.265 µM): 0.174
relative viability ([2]; 2 µM, anchor plate): 0.265
relative viability ([2]; 4 µM): 0.159
relative viability ([3]; 0.001 µM): 1.03
relative viability ([3]; 0.003162 µM): 0.972
relative viability ([3]; 0.01 µM): 0.975
relative viability ([3]; 0.03162 µM): 0.766
relative viability ([3]; 0.1 µM): 0.385

A-427
relative viability ([1]; 0.04 µM): 1.01
relative viability ([1]; 0.4 µM): 0.951
relative viability ([1]; 1.265 µM): 0.943
relative viability ([1]; 4 µM): 1.07
relative viability ([2]; 0.04 µM): 0.668
relative viability ([2]; 0.1265 µM): 0.612
relative viability ([2]; 0.4 µM): 0.322
relative viability ([2]; 1.265 µM): 0.322
relative viability ([2]; 2 µM, anchor plate): 0.558
relative viability ([2]; 4 µM): 0.292
relative viability ([3]; 0.001 µM): 1.02
relative viability ([3]; 0.003162 µM): 1.04
relative viability ([3]; 0.01 µM): 0.89
relative viability ([3]; 0.03162 µM): 0.989
relative viability ([3]; 0.1 µM): 0.921

ABC-1
relative viability ([1]; 0.04 µM): 0.995
relative viability ([1]; 0.1265 µM): 1.11
relative viability ([1]; 0.4 µM): 0.851
relative viability ([1]; 1.265 µM): 0.759
relative viability ([1]; 4 µM): 0.92
relative viability ([2]; 0.04 µM): 0.804
relative viability ([2]; 0.1265 µM): 0.97
relative viability ([2]; 0.4 µM): 0.758
relative viability ([2]; 1.265 µM): 0.733
relative viability ([2]; 2 µM, anchor plate): 1.12
relative viability ([2]; 4 µM): 0.67
relative viability ([3]; 0.001 µM): 0.939
relative viability ([3]; 0.003162 µM): 1.02
relative viability ([3]; 0.01 µM): 0.881
relative viability ([3]; 0.03162 µM): 0.934
relative viability ([3]; 0.1 µM): 0.77

BEN
relative viability ([1]; 0.04 µM): 1.07
relative viability ([1]; 0.1265 µM): 0.643
relative viability ([1]; 0.4 µM): 0.903
relative viability ([1]; 1.265 µM): 0.758
relative viability ([1]; 4 µM): 0.931
relative viability ([2]; 0.04 µM): 0.848
relative viability ([2]; 0.1265 µM): 0.853
relative viability ([2]; 0.4 µM): 0.663
relative viability ([2]; 1.265 µM): 0.587
relative viability ([2]; 2 µM, anchor plate): 0.771
relative viability ([2]; 4 µM): 0.505
relative viability ([3]; 0.001 µM): 0.993
relative viability ([3]; 0.003162 µM): 1.05
relative viability ([3]; 0.01 µM): 1.05
relative viability ([3]; 0.03162 µM): 1.03
relative viability ([3]; 0.1 µM): 0.65

CAL-12T
relative viability ([1]; 0.04 µM): 1
relative viability ([1]; 0.1265 µM): 0.974
relative viability ([1]; 0.4 µM): 0.937
relative viability ([1]; 1.265 µM): 1.01
relative viability ([1]; 4 µM): 1.01
relative viability ([2]; 0.04 µM): 0.726
relative viability ([2]; 0.1265 µM): 0.843
relative viability ([2]; 0.4 µM): 0.502
relative viability ([2]; 1.265 µM): 0.548
relative viability ([2]; 4 µM): 0.461
relative viability ([3]; 0.001 µM): 1.03
relative viability ([3]; 0.003162 µM): 1.02
relative viability ([3]; 0.01 µM): 1.03
relative viability ([3]; 0.03162 µM): 1.12
relative viability ([3]; 0.1 µM): 0.85

COR-L23
relative viability ([1]; 0.04 µM): 1.06
relative viability ([1]; 0.1265 µM): 0.957
relative viability ([1]; 0.4 µM): 0.914
relative viability ([1]; 1.265 µM): 1
relative viability ([1]; 4 µM): 1.27
relative viability ([2]; 0.04 µM): 0.677
relative viability ([2]; 0.1265 µM): 0.629
relative viability ([2]; 0.4 µM): 0.484
relative viability ([2]; 1.265 µM): 0.379
relative viability ([2]; 2 µM, anchor plate): 0.441
relative viability ([2]; 4 µM): 0.308
relative viability ([3]; 0.001 µM): 1.14
relative viability ([3]; 0.003162 µM): 1.02
relative viability ([3]; 0.01 µM): 0.982
relative viability ([3]; 0.03162 µM): 0.931
relative viability ([3]; 0.1 µM): 0.268

COR-L 105
relative viability ([1]; 0.04 µM): 0.862
relative viability ([1]; 0.1265 µM): 0.911
relative viability ([1]; 0.4 µM): 0.944
relative viability ([1]; 1.265 µM): 0.889
relative viability ([1]; 4 µM): 0.923
relative viability ([2]; 0.04 µM): 0.666
relative viability ([2]; 0.1265 µM): 0.798
relative viability ([2]; 0.4 µM): 0.711
relative viability ([2]; 1.265 µM): 0.648
relative viability ([2]; 2 µM, anchor plate): 0.696
relative viability ([2]; 4 µM): 0.577
relative viability ([3]; 0.001 µM): 1.07
relative viability ([3]; 0.003162 µM): 0.955
relative viability ([3]; 0.01 µM): 0.874
relative viability ([3]; 0.03162 µM): 0.824
relative viability ([3]; 0.1 µM): 0.711

Calu-6
relative viability ([1]; 0.04 µM): 0.982
relative viability ([1]; 0.1265 µM): 1.03
relative viability ([1]; 0.4 µM): 0.977
relative viability ([1]; 1.265 µM): 1.04
relative viability ([1]; 4 µM): 1.03
relative viability ([2]; 0.04 µM): 0.785
relative viability ([2]; 0.1265 µM): 0.644
relative viability ([2]; 0.4 µM): 0.383
relative viability ([2]; 1.265 µM): 0.301
relative viability ([2]; 4 µM): 0.272
relative viability ([3]; 0.001 µM): 1.08
relative viability ([3]; 0.003162 µM): 1.04
relative viability ([3]; 0.01 µM): 1
relative viability ([3]; 0.03162 µM): 0.633
relative viability ([3]; 0.1 µM): 0.279

ChaGo-K-1
relative viability ([1]; 0.04 µM): 0.965
relative viability ([1]; 0.1265 µM): 0.733
relative viability ([1]; 0.4 µM): 0.952
relative viability ([1]; 1.265 µM): 1.1
relative viability ([1]; 4 µM): 0.997
relative viability ([2]; 0.04 µM): 0.933
relative viability ([2]; 0.1265 µM): 0.816
relative viability ([2]; 0.4 µM): 0.537
relative viability ([2]; 1.265 µM): 0.482
relative viability ([2]; 2 µM, anchor plate): 0.537
relative viability ([2]; 4 µM): 0.477
relative viability ([3]; 0.001 µM): 0.995
relative viability ([3]; 0.003162 µM): 0.968
relative viability ([3]; 0.01 µM): 0.916
relative viability ([3]; 0.03162 µM): 0.967
relative viability ([3]; 0.1 µM): 1.03

EBC-1
relative viability ([1]; 0.04 µM): 0.999
relative viability ([1]; 0.1265 µM): 0.946
relative viability ([1]; 0.4 µM): 0.971
relative viability ([1]; 1.265 µM): 1.01
relative viability ([1]; 4 µM): 1.19
relative viability ([2]; 0.04 µM): 0.626
relative viability ([2]; 0.1265 µM): 0.456
relative viability ([2]; 0.4 µM): 0.313
relative viability ([2]; 1.265 µM): 0.272
relative viability ([2]; 4 µM): 0.246
relative viability ([3]; 0.001 µM): 1.06
relative viability ([3]; 0.003162 µM): 0.946
relative viability ([3]; 0.01 µM): 0.829
relative viability ([3]; 0.03162 µM): 0.496
relative viability ([3]; 0.1 µM): 0.231

Reference: the supplement of paper PMC10307832
